# From the supplement of paper PMC10307832
# Compound: C[C@H]([C@@H](C(=O)N)NC(=O)[C@@H]1CSSC[C@@H](C(=O)N[C@H](C(=O)N[C@@H](C(=O)N[C@H](C(=O)N1)CCCCN)CC2=CNC3=CC=CC=C32)CC4=CC=C(C=C4)O)NC(=O)[C@@H](CC5=CC=CC=C5)N)O [CAP-232] + CCNC(=O)c1noc(-c2cc(C(C)C)c(O)cc2O)c1-c1ccc(CN2CCOCC2)cc1 [Luminespib] (partner 0.01 µM)
# Assay: relative viability (nuclei count vs DMSO), 5 days (fraction); higher = more cells survive
# Procedure, shortened: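 After 5 days of treatment, lung cancer cells in 1536-well plates were fixed and stained in a single step (final 0.05% Triton X-100, 1% formaldehyde, 1 ug/ml Hoechst) and their nuclei counted on 4× images. Treatment had been applied by pin tool the day after seeding as one drug alone or as a fixed anchor-drug dose with five library-drug doses (not always all listed) in √10 steps. Relative viability is the nuclei count of treated wells divided by that of vehicle wells, and values are medians of duplicate plates.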
Cell Line,relative viability (first compound 0.4 µM),relative viability (first compound 1.265 µM),relative viability (first compound 4 µM),relative viability (first compound 12.65 µM)
NCI-H647,0.12,0.114,0.211,0.203
NCI-H2009,1.02,0.975,1,0.95
EPLC-272H,0.256,0.198,0.219,0.157
NCI-H520,0.22,0.206,0.184,0.208
NCI-H2405,0.61,0.709,0.641,0.491
NCI-H2085,0.472,0.459,0.425,0.462
NCI-H322M,0.686,0.832,0.809,0.565
NCI-H1944,0.709,0.695,0.78,0.667
LC-2-ad,1.03,1.07,0.965,0.561
NCI-H358,0.241,0.289,0.376,0.352
NCI-H2170,0.777,0.866,0.674,0.826
NCI-H2342,0.786,0.765,0.719,0.699
SW 900,0.171,0.185,0.187,0.169
A-427,0.697,0.968,0.87,1.03
NCI-H522,1.08,1.11,1.15,1.3
NCI-H1666,1.03,1.04,0.982,0.963
LOU-NH91,0.335,0.271,0.341,0.326
ABC-1,0.554,0.587,0.686,0.377
NCI-H1651,1.12,0.95,0.867,0.506
201T,1.08,1.04,0.967,1.07
NCI-H3122,0.0705,0.067,0.0822,0.0819
NCI-H838,0.321,0.266,0.349,0.246
NCI-H441,0.388,0.329,0.382,0.382
HOP-62,0.957,0.917,1.13,0.908

Cell Line,relative viability (first compound 0.4 µM),relative viability (first compound 1.265 µM),relative viability (first compound 4 µM),relative viability (first compound 12.65 µM)
SK-LU-1,0.198,0.211,0.183,0.207
HCC-44,1.35,1.01,0.759,1
LCLC-103H,1.04,0.989,0.902,1.07
NCI-H1915,0.946,0.798,0.806,0.736
ChaGo-K-1,0.574,0.638,0.495,0.545
PC-3 [JPC-3],0.663,0.661,0.732,0.538
SW 1573,0.166,0.323,0.214,0.161
NCI-H1437,1.17,1.13,1.24,0.812
NCI-H1734,0.194,0.214,0.163,0.206
LK-2,0.176,0.207,0.19,0.183
HCC-15,0.254,0.228,0.248,0.312
NCI-H650,0.735,0.824,0.674,0.721
NCI-H2347,0.274,0.493,0.443,0.471
LXF-289,0.787,0.642,0.581,0.775
BEN,0.501,0.234,0.184,0.371
NCI-H2023,0.917,0.725,0.69,0.232
NCI-H661,0.954,0.907,0.883,0.719
NCI-H1355,0.81,0.808,0.578,0.683
NCI-H1793,0.199,0.195,0.451,0.165
COR-L 105,0.768,0.652,0.737,0.494
NCI-H2228,0.142,0.128,0.189,0.177
PC-14,0.26,0.178,0.183,0.125
EMC-BAC-2,1.32,1.19,1.21,1.05
LU99A,0.333,0.267,0.182,0.246

Cell Line,relative viability (first compound 0.4 µM),relative viability (first compound 1.265 µM),relative viability (first compound 4 µM),relative viability (first compound 12.65 µM)
RERF-LC-KJ,1.27,1.39,1,0.918
NCI-H596,1.03,1.03,0.988,0.901
LCLC-97TM1,0.799,0.819,0.804,0.799
NCI-H1993,0.735,0.882,0.99,0.831
HARA,0.918,0.884,0.973,0.804
NCI-H460,0.0294,0.0314,0.0247,0.0208
NCI-H1650,0.195,0.197,0.214,0.126
EKVX,0.876,0.719,0.871,0.645
NCI-H1755,0.419,0.612,0.329,0.383
NCI-H1395,0.661,0.638,0.665,0.614
NCI-H1792,0.375,0.445,0.371,0.279
NCI-H2087,0.187,0.157,0.146,0.143
H3255,0.805,0.825,1.05,1.01
SK-MES-1,0.726,0.889,0.888,0.531
NCI-H23,0.218,0.196,0.197,0.119
HCC-827,0.629,0.66,0.659,0.749
NCI-H727,0.474,0.318,0.348,0.386
NCI-H1975,0.256,0.195,0.195,0.185
NCI-H1563,0.461,0.52,0.455,0.462
COR-L23,0.475,0.776,0.81,0.506
CAL-12T,0.132,0.184,0.242,0.155
UMC-11,0.964,1.07,1.07,0.994
NCI-H2126,0.909,0.955,0.992,0.659
